A value given as a limit tells only on which side of the number the result lay.

The target in experiment [1] is recombinant human GAA (Myozyme), lysosomal α-glucosidase (Homo sapiens, UniProt P10253). Put plainly: Enzyme activity assay, apparent IC50 on GAA. The experiment is classed as biochemical.
For experiment [2], the target named is T1, Thermotoga maritima TmGH1 β-glucosidase (Thermotoga maritima, UniProt Q08638).
T1 sequence (Q08638 1-446): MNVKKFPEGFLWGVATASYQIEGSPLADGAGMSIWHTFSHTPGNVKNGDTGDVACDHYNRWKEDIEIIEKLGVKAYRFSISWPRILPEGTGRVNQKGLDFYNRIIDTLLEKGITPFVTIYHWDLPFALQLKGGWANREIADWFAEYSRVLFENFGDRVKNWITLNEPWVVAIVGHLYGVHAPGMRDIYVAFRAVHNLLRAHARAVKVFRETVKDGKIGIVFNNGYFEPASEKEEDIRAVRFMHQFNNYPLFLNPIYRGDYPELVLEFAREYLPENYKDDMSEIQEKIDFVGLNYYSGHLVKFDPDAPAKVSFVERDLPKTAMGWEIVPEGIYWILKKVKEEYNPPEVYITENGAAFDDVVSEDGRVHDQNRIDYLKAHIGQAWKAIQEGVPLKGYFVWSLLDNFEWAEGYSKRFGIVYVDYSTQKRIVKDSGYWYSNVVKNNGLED
Put plainly: Kinetic studies of reversible inhibition of TmGH1. The format is biochemical. The note with it: for inhibition of TmGH1 (in words): p-nitrophenyl β-D-glucopyranoside, Lineweaver–Burk method.

One may read the IC50 as the concentration that gives 50% inhibition. For orientation: Ki means a dissociation constant, usually derived from enzyme kinetics or from competition with a known ligand. Higher therefore signals lower affinity. In the case of `[N-]=[N+]=NCCCCNC(=O)[C@@H]1[C@H]2[C@H](O)[C@@H](O)[C@H](O)[C@@H](CO)[C@@H]12` [Compound 5], the IC50 in experiment [1] was greater than 150 µM. In experiment [1] (final concentrations up to 150 μM), the “inhibition of GAA (in words)” value is reported as “No apparent inhibition”. In experiment [2], this compound had a Ki of 0.0082 µM.

For the compound `OC[C@@H]1[C@@H](O)[C@H](O)[C@@H](O)CN1CCCCCOCC12CC3CC(CC(C3)C1)C2` [AMP-DNM (MZ-21), reference compound], in experiment [2], the “inhibition of TmGH1 (in words)” value is “low micromolar”.

`CCOC(=O)[C@@H]1[C@H]2[C@H](O)[C@@H](O)[C@H](O)[C@@H](CO)[C@@H]12` [Compound 3]: in experiment [1], the IC50 is greater than 150 µM. Besides, in experiment [2], the Ki worked out at 22.3 µM and the “inhibition of TmGH1 (in words)” value is given as “micromolar inhibition”.

Regarding `OC[C@H]1NC[C@H](O)[C@@H](O)[C@@H]1O` [DNJ, deoxynojirimycin, reference compound], in experiment [2], the affinity corresponds to a Ki of 2.5 µM and the “inhibition of TmGH1 (in words)” value is “low micromolar”.
